ChEMBL document CHEMBL5614450, “SAR Study of 4,8-Disubstituted Pyrimido[5,4-d]pyrimidines Exhibiting Antitrypanosomal and Antileishmanial Activity” (ACS Med Chem Lett, 2024)

Assays:
[1] = Cytotoxicity against human HEK293 cells assessed as reduction in cell viability at 10 uM incubated for 24 hrs by Cell-Titer Glo luminescence assay; assay type: toxicity, cell-based; conditions: read-out: INH
[2] = tested on: Trypanosoma brucei; assay: Anti-trypanosomal activity against trypomastigote blood stage of Trypanosoma brucei Lister 427 assessed as inhibition of parasite growth incubated for 72 hrs by resazurin-dye based assay; assay type: functional, organism-based; conditions: Lister 427, 72 h
[3] = tested on: Leishmania infantum; assay: Anti-leishmanial activity against promastigote stage of Leishmania infantum MHOM/MA/67/ITMAP-263 assessed as inhibition of parasite growth at 10 uM incubated for 72 hrs by resazurin-dye based assay; assay type: functional
[4] = tested on: Leishmania infantum; assay: Anti-leishmanial activity against luciferase expressing intracellular amastigote stage of Leishmania infantum MHOM/MA/67/ITMAP-263 infected in human THP-1 cells assessed as inhibition of parasite growth at 10 uM incubated for 72 hrs by Steady-Glo luciferase assay; assay type: functional; conditions: MHOM/MA/67/ITMAP-263, THP-1
[5] = Selectivity index, ratio of CC50 for cytotoxicity against human THP-1 cells to IC50 for anti-trypanosomal activity against trypomastigote blood stage of Trypanosoma brucei Lister 427; assay type: toxicity, cell-based; conditions: read-out: Ratio CC50/IC50
[6] = tested on: Leishmania infantum; assay: Anti-leishmanial activity against promastigote stage of Leishmania infantum MHOM/MA/67/ITMAP-263 assessed as inhibition of parasite growth incubated for 72 hrs by resazurin-dye based assay; assay type: functional, organism-based; conditions: MHOM/MA/67/ITMAP-263, 72 h
[7] = target: hERG (KCNH2) (Homo sapiens, UniProt Q12809); assay: Displacement of tracer from hERG extracted from membrane at 10 uM incubated for 2 hrs by fluorescence polarization assay; assay type: toxicity, cell membranes; conditions: hERG membrane preparation, probe tracer (not named)
[8] = target: CYP3A4 (Homo sapiens, UniProt P08684); assay: Inhibition of human CYP3A4 expressed in insect cell microsomes at 10 uM preincubated for 20 mins followed by NADP+ and substrate addition and measured after 10 mins by fluorescence based analysis; assay type: ADME, Microsome; conditions: recombinant human CYP3A4 expressed in insect cell microsomes, time 30 min
[9] = Cytotoxicity against human A549 cells assessed as reduction in cell viability at 10 uM incubated for 24 hrs by Cell-Titer Glo luminescence assay; assay type: toxicity, cell-based; conditions: read-out: INH
[10] = Cytotoxicity against human THP-1 cells assessed as reduction in cell viability incubated for 72 hrs by MTT assay; assay type: toxicity, cell-based
[11] = Selectivity index, ratio of CC50 for cytotoxicity against human THP-1 cells to IC50 for anti-leishmanial activity against promastigote stage of Leishmania infantum MHOM/MA/67/ITMAP-263; assay type: toxicity, cell-based; conditions: read-out: Ratio CC50/IC50

Sequence of CYP3A4 (P08684 whole entry): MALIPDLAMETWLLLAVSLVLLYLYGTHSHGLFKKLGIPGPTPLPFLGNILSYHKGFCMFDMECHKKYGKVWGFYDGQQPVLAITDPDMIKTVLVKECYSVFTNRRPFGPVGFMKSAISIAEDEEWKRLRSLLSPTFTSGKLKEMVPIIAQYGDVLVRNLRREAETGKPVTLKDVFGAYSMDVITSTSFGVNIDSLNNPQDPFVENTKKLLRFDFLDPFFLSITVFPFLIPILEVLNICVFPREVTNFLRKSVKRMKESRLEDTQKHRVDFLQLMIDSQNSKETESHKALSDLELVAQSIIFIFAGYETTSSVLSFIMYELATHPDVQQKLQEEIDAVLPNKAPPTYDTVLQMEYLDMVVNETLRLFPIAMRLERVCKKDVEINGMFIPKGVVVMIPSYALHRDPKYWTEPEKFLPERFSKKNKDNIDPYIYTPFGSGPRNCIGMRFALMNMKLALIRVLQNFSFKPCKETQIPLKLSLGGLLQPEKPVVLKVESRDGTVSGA
Sequence of hERG (KCNH2) (Q12809 whole entry): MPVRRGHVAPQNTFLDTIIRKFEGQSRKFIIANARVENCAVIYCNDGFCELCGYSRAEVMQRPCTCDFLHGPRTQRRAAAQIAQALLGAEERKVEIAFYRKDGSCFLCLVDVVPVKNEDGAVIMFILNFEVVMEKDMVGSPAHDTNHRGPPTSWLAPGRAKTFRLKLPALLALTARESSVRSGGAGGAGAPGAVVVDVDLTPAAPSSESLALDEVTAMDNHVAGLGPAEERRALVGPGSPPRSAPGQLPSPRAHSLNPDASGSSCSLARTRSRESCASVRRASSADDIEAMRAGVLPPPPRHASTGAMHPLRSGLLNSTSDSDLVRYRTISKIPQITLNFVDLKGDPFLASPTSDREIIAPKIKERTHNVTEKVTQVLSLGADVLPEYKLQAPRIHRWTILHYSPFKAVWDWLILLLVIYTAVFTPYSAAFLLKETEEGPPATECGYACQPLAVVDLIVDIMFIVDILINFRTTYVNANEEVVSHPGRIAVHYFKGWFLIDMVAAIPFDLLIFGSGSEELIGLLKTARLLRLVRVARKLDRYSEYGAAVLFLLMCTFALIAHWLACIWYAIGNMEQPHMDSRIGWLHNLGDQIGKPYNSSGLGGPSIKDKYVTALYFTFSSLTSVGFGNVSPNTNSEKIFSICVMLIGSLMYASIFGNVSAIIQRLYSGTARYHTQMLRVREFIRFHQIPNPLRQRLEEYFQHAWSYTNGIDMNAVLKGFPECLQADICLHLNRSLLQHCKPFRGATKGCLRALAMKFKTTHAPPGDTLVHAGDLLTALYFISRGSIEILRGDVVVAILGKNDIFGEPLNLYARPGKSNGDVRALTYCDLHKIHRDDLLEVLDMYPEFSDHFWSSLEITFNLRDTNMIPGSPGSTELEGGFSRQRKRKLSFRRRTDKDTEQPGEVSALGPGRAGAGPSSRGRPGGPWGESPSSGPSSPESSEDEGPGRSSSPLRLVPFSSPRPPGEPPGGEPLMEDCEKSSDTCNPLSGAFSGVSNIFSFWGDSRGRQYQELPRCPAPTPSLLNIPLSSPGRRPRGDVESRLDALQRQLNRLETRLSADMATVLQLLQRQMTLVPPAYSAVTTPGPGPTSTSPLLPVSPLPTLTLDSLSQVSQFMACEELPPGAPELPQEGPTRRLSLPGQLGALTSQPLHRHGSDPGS

| Compound | cytotoxicity at 24 h, 10 µM [1] | IC50 [2] | inhibition at 10 µM [3] | inhibition at 10 µM [4] | selectivity ratio [5] | IC50 [6] | inhibition at 2 h, 10 µM [7] | inhibition at 10 min, 10 µM [8] | cytotoxicity at 24 h, 10 µM [9] | CC50 at 72 h [10] | selectivity ratio [11] |
| --- | --- | --- | --- | --- | --- | --- | --- | --- | --- | --- | --- |
| Oc1ccc(/C=N/Nc2ncnc3c(Nc4ccc(OC(F)(F)F)cc4)ncnc23)cc1O | 24% | 0.35 µM | 52% | < 0% | > 29 | 14.9 µM | 21% | 0% | 18% | > 10 µM | 1 |
| COc1cc(/C=N/Nc2ncnc3c(Nc4ccc(OC(F)(F)F)cc4)ncnc23)cc(OC)c1OC | 2% | 0.39 µM | 24% | – | > 26 | – | 21% | 11% | 6% | > 10 µM | – |
| COc1ccc(/C=N/Nc2ncnc3c(Nc4ccc(F)c(Cl)c4)ncnc23)cc1O | -3% | 5.81 µM | 13% | – | > 2 | – | -7% | 20% | -9% | > 10 µM | – |
| Oc1cc(/C=N/Nc2ncnc3c(Nc4ccc(OC(F)(F)F)cc4)ncnc23)cc(O)c1O | 7% | 0.16 µM | 5% | – | > 64 | – | 30% | 21% | 9% | > 10 µM | – |
| Oc1ccc(/C=N/Nc2ncnc3c(Nc4ccc(F)c(Cl)c4)ncnc23)cc1O | -6% | 0.59 µM | 13% | – | > 85 | – | 7% | 25% | -6% | > 50 µM | – |
| Oc1cc(/C=N/Nc2ncnc3c(Nc4ccc(Cl)c(C(F)(F)F)c4)ncnc23)cc(O)c1O | -2% | 2.76 µM | < 0% | – | > 4 | – | 49% | 11% | -4% | > 10 µM | – |
| Oc1ccc(/C=N/Nc2ncnc3c(Nc4ccc(Cl)c(C(F)(F)F)c4)ncnc23)cc1O | 3% | 0.43 µM | 5% | – | > 23 | – | 29% | 0% | 15% | > 10 µM | – |
| COc1cc(/C=N/Nc2ncnc3c(Nc4ccc(Cl)c(C(F)(F)F)c4)ncnc23)cc(OC)c1OC | -2% | 1.76 µM | 22% | – | > 6 | – | 24% | 20% | -7% | > 10 µM | – |
| COc1cc(/C=N/Nc2ncnc3c(Nc4ccc(OC(F)(F)F)cc4)ncnc23)ccc1O | 19% | 0.18 µM | 50% | < 0% | > 54 | 8.75 µM | 64% | 0% | 38% | > 10 µM | 1 |
| COc1cc(/C=N/Nc2ncnc3c(Nc4ccc(F)c(Cl)c4)ncnc23)cc(OC)c1OC | 14% | 8.72 µM | 20% | – | > 1 | – | 5% | 30% | 14% | > 10 µM | – |
| N=C(N)c1ccc(OCCCCCOc2ccc(C(=N)N)cc2)cc1 [PENTAMIDINE] | – | 0.003 µM | – | – | – | – | – | – | – | < 10 µM | – |
| Oc1cc(/C=N/Nc2ncnc3c(Nc4ccc(F)c(Cl)c4)ncnc23)cc(O)c1O | 24% | 0.38 µM | 0% | – | > 26 | – | 62% | 0% | 27% | > 10 µM | – |
| COc1cc(/C=N/Nc2ncnc3c(Nc4ccc(F)c(Cl)c4)ncnc23)cc(OC)c1O | 11% | 5.83 µM | < 0% | – | > 17 | – | 38% | 32% | 5% | > 100 µM | – |
| COc1cc(/C=N/Nc2ncnc3c(Nc4ccc(F)c(Cl)c4)ncnc23)ccc1O | 13% | 0.26 µM | 19% | – | > 196 | – | 7% | 24% | 2% | > 50 µM | – |
| NNc1ncnc2c(Nc3ccc(OC(F)(F)F)cc3)ncnc12 | 17% | 0.18 µM | 18% | – | > 55 | – | 30% | 20% | 17% | > 10 µM | – |
| COc1ccc(/C=N/Nc2ncnc3c(Nc4ccc(Cl)c(C(F)(F)F)c4)ncnc23)cc1O | -3% | 1.44 µM | 12% | – | > 7 | – | 7% | 27% | 3% | > 10 µM | – |
| COc1cc(/C=N/Nc2ncnc3c(Nc4ccc(Cl)c(C(F)(F)F)c4)ncnc23)cc(OC)c1O | -1% | 5.63 µM | 9% | – | > 2 | – | 3% | 19% | -2% | > 10 µM | – |
